According to ChEMBL document CHEMBL2157899 (Bioorg Med Chem, 2012):
pIC50, pKi: −log10 of the molar value. Non-standard residues stand in square brackets, D forms with d. Residues, ends and D or L forms follow the SMILES beside them. ξ: configuration not given here. ξGly(octyl) = CCCCCCCCC(N)C(=O)O

Columns and labels:
[1] = Half life in human Caco2 cell homogenate at 200 uM by LC/MS analysis; type: ADME, Colon; details: Caco-2 cell homogenate
[2] = target: T1, Mu-type opioid receptor (Homo sapiens, UniProt P35372); test: Agonist activity at MOP receptor expressed in CHO-K1 cells assessed as inhibition of forskolin-stimulated cAMP accumulation after 30 mins; type: functional, cell-based
[3] = in vitro; details: human, Caco-2
Description: Apparent permeability across human Caco2 cells st 200 uM measured over 150 mins by LC/MS analysis

[4] = target: T1, Mu-type opioid receptor; test: Displacement of [3H]DAMGO from MOP receptor expressed in CHO-K1 cells after overnight incubation by beta counting method; type: cell-based
[5] = target: Delta-type opioid receptor (Homo sapiens, UniProt P41143); test: Displacement of [3H]DPDPE from DOP receptor expressed in CHO-K1 cells after overnight incubation by beta counting method; type: cell-based
[6] = system: CHO-K1; test: Selectivity ratio of Ki for DOP receptor expressed in CHO-K1 cells to Ki for MOP receptor expressed in CHO-K1 cells; type: cell-based

T1 sequence (P35372 whole entry): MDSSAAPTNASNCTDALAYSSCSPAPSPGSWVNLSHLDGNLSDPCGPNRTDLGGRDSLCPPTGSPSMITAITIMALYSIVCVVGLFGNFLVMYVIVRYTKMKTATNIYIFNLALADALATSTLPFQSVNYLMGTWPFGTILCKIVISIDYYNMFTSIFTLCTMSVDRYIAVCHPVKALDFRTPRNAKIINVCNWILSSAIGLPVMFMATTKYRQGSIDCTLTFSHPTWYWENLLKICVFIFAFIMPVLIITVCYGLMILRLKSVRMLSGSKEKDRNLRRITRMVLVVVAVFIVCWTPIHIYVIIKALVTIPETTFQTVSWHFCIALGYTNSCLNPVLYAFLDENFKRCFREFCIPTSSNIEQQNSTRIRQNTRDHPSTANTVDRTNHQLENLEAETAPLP
Delta-type opioid receptor, sequence (P41143 whole entry): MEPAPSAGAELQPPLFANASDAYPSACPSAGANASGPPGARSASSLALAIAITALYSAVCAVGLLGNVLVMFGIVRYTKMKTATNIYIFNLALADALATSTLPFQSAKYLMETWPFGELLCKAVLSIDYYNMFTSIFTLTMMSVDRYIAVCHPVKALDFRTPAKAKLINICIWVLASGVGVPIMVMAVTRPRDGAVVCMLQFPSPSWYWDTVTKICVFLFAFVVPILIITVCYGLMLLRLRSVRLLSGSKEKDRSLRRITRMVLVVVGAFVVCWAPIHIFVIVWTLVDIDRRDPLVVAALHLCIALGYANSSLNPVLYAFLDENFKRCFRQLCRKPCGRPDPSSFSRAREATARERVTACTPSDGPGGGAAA

Compound | half-life at 200 µM [1] [min] | pIC50 [2] | inhibition [2] | Papp at 2.5 h, 200 µM [3] [×10⁻⁶ cm/s] | pKi [4] | pKi [5] | Ratio Ki [6]
H-YPWFFGLM-NH2 | 15.6 | 7.92 | Dose-dependent effect | 2.04 | 9.14 | 5.81 | 2130
CCCCCCCCC(N)C(=O)N[C@@H](Cc1ccc(O)cc1)C(=O)N1CCC[C@H]1C(=O)N[C@@H](Cc1c[nH]c2ccccc12)C(=O)N[C@@H](Cc1ccccc1)C(=O)NCC(=O)N[C@@H](CC(C)C)C(=O)N[C@@H](CCSC)C(N)=O (stereo partly drawn) (H-[ξGly(octyl)]YPWFGLM-NH2) | 52.5 |  |  | 8.08 | 6.88 | 5.65 | 17
OC[C@@H](O)[C@@H](O)[C@H](O)[C@H](O)CO [MANNITOL] |  |  |  | 0.488 |  |  | 
NC(=O)[C@H](Cc1ccccc1)NC(=O)[C@H](Cc1c[nH]c2ccccc12)NC(=O)[C@@H]1CCCN1C(=O)[C@@H](N)Cc1ccc(O)cc1 [ENDOMORPHIN-1] | 5.6 |  |  | 1.01 |  |  | 
H-YPWFGLM-NH2 | 10.7 |  |  | 1.41 | 8.80 | 5.70 | 1240
CCCCCCCCC(N)C(=O)N[C@@H](Cc1ccc(O)cc1)C(=O)N1CCC[C@H]1C(=O)N[C@@H](Cc1c[nH]c2ccccc12)C(=O)N[C@@H](Cc1ccccc1)C(=O)N[C@@H](Cc1ccccc1)C(=O)NCC(=O)N[C@@H](CC(C)C)C(=O)N[C@@H](CCSC)C(N)=O (stereo partly drawn) (H-[ξGly(octyl)]YPWFFGLM-NH2) | 75.8 | 7.35 | Dose-dependent effect | 10.2 | 8.41 | 5.91 | 318
CC(C)NCC(O)COc1cccc2ccccc12 (stereo not drawn) [PROPRANOLOL] |  |  |  | 30.5 |  |  | 
